The nature of series [1]: Cmax in C57Bl/6 DIO mouse at 22 mg/kg, po. It is filed as ADME, organism-based. Details: dose 22 mg/kg, route oral. Conditions: in vivo.
Series [2] in a line: Oral bioavailability in C57Bl/6 DIO mouse at 22 mg/kg. The format is ADME, organism-based. Conditions: in vivo.
The nature of series [3]: Half life in C57Bl/6 DIO mouse at 1 mg/kg, iv. It is filed as ADME, organism-based. Also on record: dose 1 mg/kg, route intravenous. Conditions: in vivo.
Series [4] in a line: Volume of distribution at steady state in C57Bl/6 DIO mouse at 1 mg/kg, iv. It is filed as ADME, organism-based. Conditions: in vivo, read-out: Vdss. Details: dose 1 mg/kg, route intravenous.
Series [5] in a line: 1-octanol-aqueous buffer distribution coefficient, log D of the compound at 0.5 mM at pH 7.4 after 2 hrs by shake flask method. It is filed as physicochemical.
Series [6] is described as follows: Clearance in C57Bl/6 DIO mouse at 1 mg/kg, iv. It is filed as ADME, organism-based. Conditions: in vivo. Also on record: dose 1 mg/kg, route intravenous.
Series [7] can be described thus: Stability of the compound in aqueous solution assessed as recovery at pH 1 to 10 after 2 hrs. Conditions: read-out: Drug recovery. The format is physicochemical.
Series [8] is described as follows: Oral bioavailability in C57Bl/6 DIO mouse at 49 mg/kg. Conditions: in vivo. It is filed as ADME, organism-based.
A further series concerns Plasma. Briefly: Plasma concentration in C57Bl/6 DIO mouse at 50 to 100 mg/kg, po. It is filed as ADME, organism-based. Also on record: dose 50-100 mg/kg, route oral. Conditions: in vivo.
Series [9] is described as follows: Oral bioavailability in C57Bl/6 DIO mouse at 23 mg/kg. It is filed as ADME, organism-based. Conditions: in vivo.
The nature of series [10]: Cmax in C57Bl/6 DIO mouse at 30 mg/kg, po. The format is ADME, organism-based. Also on record: dose 30 mg/kg, route oral. Conditions: in vivo.
Series [11] in a line: Oral bioavailability in C57Bl/6 DIO mouse at 30 mg/kg. Conditions: in vivo. It is filed as ADME, organism-based.

This is an account of results in ChEMBL document CHEMBL2406956, “Discovery and optimisation of 1-hydroxyimino-3,3-diphenylpropanes, a new class of orally active GPBAR1 (TGR5) agonists” (Bioorg Med Chem Lett, 2013).

Some results are limits rather than exact numbers.

By Cmax is commonly meant the maximum level reached in the sampled fluid or tissue. One may read the bioavailability as dose-corrected exposure relative to a reference, in per cent. A low value points to little systemic uptake. In general, half-life refers to the time in which the quantity being followed falls by half. By logD is commonly meant lipophilicity at a set pH, counting ionised and neutral species. Higher therefore signals a more lipophilic compound. A word on the clearance: it is the rate of elimination divided by the concentration.

In the case of `Cc1ccccc1[C@H](C/C(=N\O)c1ccc(=O)n(C)c1)c1ccc(S(C)(=O)=O)cc1`, the Cmax in [1] is 870 ng/mL. The compound also came in with a bioavailability in series [2] of 29%. This compound showed a half-life in series [3] of 2.2 h. For the same compound, in series [4], the Vd amounted to 3.3 L/kg. In series [5], the logD at 2 h, 500 µM was 1.7. Moreover, in [6], the clearance came out at 67 mL/min/kg.

Take `Cc1cc(/C(C[C@@H](c2ccc(N3CCC(C(=O)O)CC3)cc2)c2ccccc2C)=N/O)ccn1`: the logD at 2 h, 500 µM in [5] worked out at 1.6.

`CN(C)c1ccc(C(C/C(=N\O)c2ccncc2)c2ccccc2)cc1` (stereo not given): the remaining at 2 h in [7] is above 90%. Moreover, in series [5], the logD at 2 h, 500 µM was determined as 3.4.

Compound `Cc1cc(/C(C[C@@H](c2ccc(-c3ccc(C(=O)O)cc3)cc2)c2ccccc2C)=N/O)ccn1` yielded a pH-dependent lipophilicity (logD) at 2 h, 500 µM in [5] of 2.7.

The compound `Cc1ccccc1[C@@H](C/C(=N\O)c1ccc(=O)n(C)c1)c1ccc(S(C)(=O)=O)cc1` yielded a logD at 2 h, 500 µM in series [5] of 1.9.

In series [8], `Cc1ccccc1[C@H](C/C(=N\O)c1ccc(=O)n(C)c1)c1ccc(-c2ccc(C(=O)O)cc2)cc1` came in with a bioavailability of 67%. The compound also gave a half-life in [3] of 0.7 h. In addition, the Vd in series [4] turned out to be 0.5 L/kg. The logD at 2 h, 500 µM in [5] was determined as 1.3. The compound also yielded a clearance in series [6] of 5 mL/min/kg.

In turn, `Cc1ccccc1[C@@H](C/C(=N\O)c1ccc(=O)n(C)c1)c1ccc(-c2ccc(C(=O)O)cc2)cc1` displayed a log distribution coefficient (logD) at 2 h, 500 µM in series [5] of 1.5.

In the case of `Cc1cc(/C(CC(c2ccc(Br)cc2)c2ccccc2C)=N/O)ccn1` (stereo not given), the pH-dependent lipophilicity (logD) at 2 h, 500 µM in series [5] was above 4.

The compound `Cc1cc(/C(C[C@H](c2ccc(-c3ccc(C(=O)O)cc3)cc2)c2ccccc2C)=N/O)ccn1` had a Cp in the series on Plasma of 31500 ng/mL. Besides, the bioavailability in series [9] came out at 80%. The compound also gave a half-life in [3] of 0.3 h. In series [4], the Vd turned out to be 0.5 L/kg. The same compound displayed a logD at 2 h, 500 µM in series [5] of 2.7. Further, the clearance in series [6] was 15 mL/min/kg.

`Cc1cc(/C(C[C@H](c2ccc(N3CCC(C(=O)O)CC3)cc2)c2ccccc2C)=N/O)ccn1`: in [10], the Cmax was found to be 41000 ng/mL. Besides, the bioavailability in [11] worked out at 100%. The same compound had a half-life in series [3] of 1.7 h. The Vd in series [4] stood at 0.4 L/kg. The compound also displayed a logD at 2 h, 500 µM in [5] of 1.5. Moreover, in series [6], the clearance is 5 mL/min/kg.
